Experiment [1] has as its system Rattus norvegicus. Briefly: Prokinetic activity expressed as ability to increase intragastric pressure in rat on subcutaneous administration. It counts as functional.
Experiment [2] concerns the target Dopamine receptor (Rattus norvegicus) (UniProt P25115+P19020+P30729+P18901+P61169). Briefly: Dopamine receptor antagonist activity expressed as ability to inhibit apomorphine-induced climbing behavior in rat on subcutaneous administration. It counts as functional, organism-based.
A short description of experiment [3]: Ratio of ability to inhibit apomorphine induced climbing to that of increasing intragastric pressure in rats. In kind it is functional.
Experiment [4] concerns Canis familiaris. Briefly: Compound was tested for inhibiting apomorphine-induced emesis in dog up to a dose of 10 mg/kg when administered subcutaneously; E - compound found effective. In kind it is functional, organism-based. Also on record: dose 10 mg/kg. Particulars: Canis lupus familiaris.

Calls of active or inactive are those of the source. The rule behind the calls is not given here. Where only a bound is given, the exact number is not on record here.

As a reminder, the ED50 is the midpoint of the dose-response relation.

Compound `CCN(CC)CCNC(=O)c1cc(Cl)c(N)cc1OC` [METOCLOPRAMIDE] gave an Activity in experiment [1] of 1 mg/kg. In addition, the ED50 in experiment [2] was determined as 0.8 mg/kg. Besides, the Ratio in experiment [3] is on record as 0.8.

The compound `COc1cc(N)c(Cl)cc1C(=O)NC1CCCN2CCOCC12` (stereo in doubt; 18) [listing 1 of 2 here] showed an ED50 in experiment [2] greater than 25 mg/kg. With `COc1cc(N)c(Cl)cc1C(=O)NC1CCN2CC[S+]([O-])CC2C1` (stereo in doubt; 22) [listing 1 of 2 here], in experiment [4], the result was Active.

For the compound `COc1cc(N)c(Cl)cc1C(=O)NC1CCCN2CCSCC12` (stereo in doubt; 23) [listing 1 of 2 here], in experiment [1], the Activity is greater than 5 mg/kg. Take `COc1cc(N)c(Cl)cc1C(=O)NC1CCCN2CCOCC12` (stereo in doubt; 17) [listing 1 of 2 here]: in experiment [1], the Activity was greater than 5 mg/kg. With `COc1cc(N)c(Cl)cc1C(=O)NC1CCN2CCOCC2C1` (stereo in doubt; 14) [listing 1 of 2 here], the Activity in experiment [1] was 0.2 mg/kg. The Ratio in experiment [3] is 350.

`COc1cc(N)c(Cl)cc1C(=O)NC1CCN2CCOCC2C1` (stereo in doubt; 15) [listing 1 of 2 here] returned an Activity in experiment [1] of 1 mg/kg. Also, in experiment [3], the Ratio is 30.

As for `COc1cc(N)c(Cl)cc1C(=O)NC1CN2CCCCN2C1`, in experiment [1], the Activity is 0.5 mg/kg. The compound further returned an ED50 in experiment [2] of 10 mg/kg. For the same compound, the Ratio in experiment [3] was found to be 20. As to `COc1cc(N)c(Cl)cc1C(=O)NC1CCN2CCOCC2C1` (stereo in doubt; 15) [listing 2 of 2 here], the ED50 in experiment [2] stood at 30 mg/kg. As to `COc1cc(N)c(Cl)cc1C(=O)NC1CCN2CCCCN2C1` (stereo not drawn), the Activity in experiment [1] amounted to 1 mg/kg. The compound further came in with an ED50 in experiment [2] of 30 mg/kg. The Ratio in experiment [3] turned out to be 30. As for `COc1cc(N)c(Cl)cc1C(=O)NC1CCN2CC[S+]([O-])CC2C1` (stereo in doubt; 21) [listing 1 of 2 here], in experiment [1], the Activity came out at 5 mg/kg. For `COc1cc(N)c(Cl)cc1C(=O)NC1CCCN2CCSCC12` (stereo in doubt; 24) [listing 1 of 2 here], the ED50 in experiment [2] was 30 mg/kg. For `COc1cc(N)c(Cl)cc1C(=O)NC1CCCN2CCOCC12` (stereo in doubt; 17) [listing 2 of 2 here], in experiment [2], the ED50 came out at 30 mg/kg. On to `COc1cc(N)c(Cl)cc1C(=O)NC1CCN2CC[S+]([O-])CC2C1` (stereo in doubt; 22) [listing 2 of 2 here], for which the Activity in experiment [1] was determined as 1 mg/kg.

Take `COc1cc(N)c(Cl)cc1C(=O)NC1CCN2C(C)CCCC2C1` (stereo not drawn) [BRL-20627]: the Activity in experiment [1] was determined as 0.5 mg/kg. Further, the ED50 in experiment [2] came out at 25 mg/kg. Also, the Ratio in experiment [3] was determined as 50.

In experiment [1], `COc1cc(N)c(Cl)cc1C(=O)NC1CCN2CCSCC2C1` (stereo not drawn) yielded an Activity of 1 mg/kg. The compound also registered an ED50 in experiment [2] greater than 25 mg/kg. The result in experiment [4] was Active. In the case of `COc1cc(N)c(Cl)cc1C(=O)NC1CN2CCC(c3ccccc3)CN2C1` (stereo not drawn), the Activity in experiment [1] was greater than 1 mg/kg. In experiment [2], this compound came in with an ED50 of 5 mg/kg. With `COc1cc(N)c(Cl)cc1C(=O)NC1CCN2C(C)COCC2C1` (stereo not drawn), in experiment [1], the Activity is 0.2 mg/kg. This compound also gave an ED50 in experiment [2] of 40 mg/kg. In addition, in experiment [3], the Ratio is listed as 200. On to `COc1cc(N)c(Cl)cc1C(=O)NC1CN2Cc3ccccc3CN2C1`, for which, in experiment [1], the Activity was greater than 1 mg/kg. Further, in experiment [2], the ED50 was 10 mg/kg. Consider `COc1cc(N)c(Cl)cc1C(=O)NC1CCN2CCOCC2C1` (stereo in doubt; 14) [listing 2 of 2 here], for which the ED50 in experiment [2] was 70 mg/kg. `COc1cc(N)c(Cl)cc1C(=O)NC1CCN2CC[S+]([O-])CC2C1` (stereo in doubt; 21) [listing 2 of 2 here] gave an ED50 in experiment [2] greater than 10 mg/kg. On to `COc1cc(N)c(Cl)cc1C(=O)NC1CCCN2CCOCC12` (stereo in doubt; 18) [listing 2 of 2 here], for which the Activity in experiment [1] is 1 mg/kg. In turn, `COc1cc(N)c(Cl)cc1C(=O)NC1CCCN2CCSCC12` (stereo in doubt; 23) [listing 2 of 2 here] yielded an ED50 in experiment [2] of 5 mg/kg. In experiment [1], `COc1cc(N)c(Cl)cc1C(=O)NC1CN2CC=CCN2C1` registered an Activity greater than 1 mg/kg. This compound also had a median effective dose (ED50) in experiment [2] greater than 50 mg/kg. In experiment [1], `COc1cc(N)c(Cl)cc1C(=O)NC1CCCN2CCSCC12` (stereo in doubt; 24) [listing 2 of 2 here] registered an Activity of 1 mg/kg. For the same compound, the Ratio in experiment [3] was found to be 30.

The values above are taken from ChEMBL document CHEMBL1126353, “Substituted benzamides with conformationally restricted side chains. 4. Hetero-azabicyclo[x.y.0] derivatives as gastric prokinetic agents” (1992).
